Reference: a melting point compilation (Tetko et al.; mined from patent text by program, amines drawn as free bases though some values may be those of a salt)

SMILES | melting point
COC(=O)c1cc(SC(F)(F)F)c(-c2ccc(Cl)cc2)[nH]1 | 133 to 137 °C
CC(C)c1c(C(=O)c2cc(Cl)cc(Cl)c2)[nH]c(=O)[nH]c1=O | 252 to 253 °C
CCCCCCOC(=O)COc1ccc(F)c(C(N)=O)c1F | 108 °C
O=C(CCCCCCOc1ccccc1)c1nnc(CO)o1 | 83 to 85 °C
Cc1ccc(-c2nsc3ccccc23)cc1 | 56 °C
CC12CCC3c4ccc(C(=O)O)cc4CCC3C1CCC2C(=O)c1ccc(-c2ccccc2)cc1 (stereo unspecified) | 268 to 270 °C
Cc1cc2c(c(C(=O)O)c1)OCC2 | 177 to 179 °C
c1ccc(CCN2CCN(c3n[nH]c4c3CCCc3ccccc3-4)CC2)cc1 | 147 to 148 °C
COc1ccc(OC)c2c1C(=O)c1c(O)c3c(c(O)c1C2=O)CC(=O)CC3 | 173 to 174 °C
CN(C)CCN(C)C(=O)Cn1c(-c2ccc(Cl)cc2)nc2cccnc21 | 120 to 122 °C
O=C(O)C1NCCc2c1[nH]c1ccc(F)cc21 (stereo unspecified) | 237 to 238 °C
CCOC(=O)C1=C(C)NC(C)=C(C(=O)OCC)C1c1ccc(Cl)cc1Cl | 148 to 149 °C
CCCCCCCCCCCCC(OC)C1=CC(=O)OC1O (stereo unspecified) | 53 to 54 °C
N#Cc1cc(N)ccc1N1CCC(CCO)CC1 | 60 to 63 °C
O=C(Nc1nc(C(F)(F)C(F)(F)F)c(CF)s1)c1cc(C(F)(F)F)cc(C(F)(F)F)c1 | 133 to 134 °C
CCCCCc1cc(-c2ccc(F)cc2C(C)O)c(C(C)C)nc1C(C)C (stereo unspecified) | 84 to 86 °C
O=C1NC(=O)c2c1c(-c1ccccc1Cl)cc1oc3cc(OCCCN4CCCC4)c(O)cc3c21 | 302 to 304 °C
CCOCc1nc2c(N)nc3cccnc3c2n1NC(C)C | 150 to 152 °C
CC1(C)CC(=O)c2c(SCc3ccccc3)cn(-c3ccccn3)c2C1 | 190 to 192 °C
COC(=O)c1cc(C)cc2c1OCc1ccccc1C2C(=O)Nc1c(C(C)C)cccc1C(C)C (stereo unspecified) | 136 to 138 °C
CC(=O)C(C)Nc1c(C)cc(C)c2nsnc12 (stereo unspecified) | 209 to 211 °C

SMILES | melting point
Nc1ccc(C=C2NC(=O)NC2=O)cc1 | 300 °C
O=C(Nc1cccnc1NCc1ccc(Cl)cc1)c1ccccn1 | 123 to 125 °C
COc1ncnc(OC)c1CON=C(C)c1cc(C)cc(C)n1 | 125 to 126 °C
O=C(CCc1cccnc1)NCCCCC1CCN(P(=O)(c2ccccc2)c2ccccc2)CC1 | 134 to 135 °C
Cc1nn(-c2ccccn2)c2ncc(C(=O)c3ccccc3)c(O)c12 | 224 to 226 °C
O=[N+]([O-])c1ccc(-c2ccc([N+](=O)[O-])cc2C(F)(F)F)c(C(F)(F)F)c1 | 140 °C
O=C(OC1CCN(Cc2ccccc2)CC1)c1cccc(I)c1 | 101 to 103 °C
COc1ccc2nc(CC(C)C)c(CN)c(-c3ccccc3)c2c1 | 73 to 76 °C
Nc1cc(-n2cc(C(=O)O)c(=O)c3cc(F)c(F)c(Cl)c32)cnc1Cl | 277 to 281 °C
CCOc1c(NCCP(=O)(OCC)OCC)c(=O)c1=O | 66 to 68 °C
COC(=O)c1scc(Br)c1N | 58 to 60 °C
COc1ccc(S(=O)(=O)c2ncoc2C(C)C)cc1 | 98 to 100 °C
Cc1nn(C)c(-n2ccc3cc(Cl)ccc32)c1CCS(=O)(=O)NC(=O)OCC1CC1 | 170 °C
CC(=O)Nc1ccc(F)c(-c2ccncc2)n1 | 254 to 256 °C
c1ccc(C(N=C2NCCN2)c2ccccc2)cc1 | 189 to 190 °C
CN(C)C(=O)C(C)(C)n1cc(Cl)c(-c2ccccc2)n1 | 117 to 119 °C
CC1(C)CC(=O)Nc2cc3nc(-c4cccc(Cl)c4)[nH]c3cc21 | 190 to 193 °C
ClCCOc1c2ccccc2c(OCCCl)c2ccccc12 | 143 to 145 °C
CC(C)NS(=O)(=O)c1cccc(F)c1C#N | 184 to 189 °C
CC(C)(C)c1cc(Nc2ccccc2C=O)cc(C(C)(C)C)c1O | 105 to 107 °C
